We go through 1 compound from patent US6955648B2, “Precision brain blood flow assessment remotely in real time using nanotechnology ultrasound” (New Health Sciences, Inc., priority 2000, dated 2005).

For this experiment, the system named is cerebral vessels. Particulars: person after first stroke. How it is done:
A person with a history of hypertension experiences a first stroke in the left middle cerebral artery resulting in deficits in the right hand, leg, and some deficits in motor speech. These are the symptoms upon presentation in the neurological clinic. Transcranial Doppler analysis of all cerebral vessels is performed in addition to analyzing the common carotid artery and the internal carotid artery.
The physician considers prescription of Plavix together with a calcium channel blocker. Transcranial Doppler analysis was performed at monthly intervals. […] The physician subsequently administers a higher dose. Again, transcranial Doppler analysis is performed on all cerebral vessels.

The mark [1] stands for this setting: higher dose, transcranial Doppler on all cerebral vessels.

For the compound `COC(=O)[C@H](c1ccccc1Cl)N1CCc2sccc2C1` [Plavix], the “effect on the cerebral vessels (changes in the individual cerebral vessels)” value (Plavix +/− calcium channel blocker, initial dose, transcranial Doppler at monthly intervals) was “no effect”. Besides, under setting [1], the auto-regulation curve result is listed as “left-shifts toward normal” and the pulsatility index result is reported as “decreases”.
